Reference: patent US10856562B2, “Flavor composition and edible compositions containing same” (MARS, INCORPORATED, priority 2013, dated 2020)
“Also recorded” adds a separate entry of the source. Square brackets hold non-standard residues; d marks the D form. Ends that are not written are not given here. pGlu = O=C1CC[C@@H](C(=O)O)N1

How the values were obtained:
Format in all cases: in vivo, human
panel of trained tasters = assay: Saltiness of sodium-reduced pasta sauce with peptides, panel of trained tasters; conditions: 10 ppb of UE-30
Method: Food product compositions were prepared by admixing flavor composition peptide(s) of the present application with food compositions, wherein the level of sodium (NaCl) in the food product compositions was reduced. The level of sodium was reduced by 25%, 50% or 75% compared to food products compositions that were not admixed with flavor composition peptides. The food product compositions comprising the flavor composition peptides were tasted by a panel of trained tasters and the level of saltiness was compared to the control food products.
The peptides pGlu-Val-Leu (identified as “SE-13”), pGlu-Val-Cys (identified as “UE-30”) and pGlu-Val-Val (identified as “SE-17”) were tested in Pasta Sauce. The control pasta sauce comprised 540 mg sodium (NaCl) in a 125 g serving.

panelists [1] = assay: Descriptive profile (Spectrum method) of peptide in 0.2% NaCl solution, in-mouth; conditions: for Astringent, in-mouth perception / Bitter, in-mouth perception / Flinty/Mineral, in-mouth perception / Metallic, in-mouth perception / Numbing, in-mouth perception / Salt, in-mouth perception (mean salt perception in-mouth) / Sour, in-mouth perception / Sweet, in-mouth perception: mean score, 15-point scale
Method: Descriptive Profiles (Flavor and Chemical Feeling Factors) of five use levels of a pGlu-Val-Leu flavor composition were determined using the Spectrum™ method. The five use levels were as follows: 0.1 ppb, 0.5 ppb, 1.0 ppb, 10.0 ppb and 40.0 ppb.
Data was collected for the flavor and chemical feeling factors of the product in-mouth for each of the five use levels according to the following protocol. One replication was collected for the flavor and chemical feeling factors of the product in-mouth. 6-9 panelists evaluated per session.
2. Each panelist tasted a test sample (0.1 ppb, 0.5 ppb, 1.0 ppb, 10.0 ppb or 40.0 ppb all in 0.2% NaCl solution). Only one sample was tasted per session.
Descriptive attributes (e.g., taste, flavor and chemical feeling factors) of six use levels of pGlu-Val-Leu (SE-13), pGlu-Val (SE-14) and pGlu-Val-Val (SE-17) flavor composition peptides were determined. The six use levels were as follows: 0.1 ppb, 0.5 ppb, 1.0 ppb, 10.0 ppb, 40.0 ppb and 50.0 ppb.
Data was collected for the attributes of the product in-mouth for the use levels according to the following protocol: • The samples were analyzed for flavor and aftertaste by six-nine members of a panel, trained and experienced in appearance, flavor and texture evaluation using the Spectrum™ method. Samples in solution were evaluated across multiple panel sessions. • The strength of each attribute was rated on a 15-point scale, where 0=none and 15=very strong. • This scale incorporates the ability to use tenths of a point and therefore has the potential of 150 scale differentiations. • The scale may be expanded beyond 15 points to include extreme ratings if necessary.
(§1) Attribute Perception Protocol • The panelists evaluated each sample using the following procedure • Descriptive Profiles (flavor and chemical feeling factors) of 5 levels of salt enhancing solutions • Individual data was collected for the flavor and chemical feeling factors of the product in-mouth • Increased Salt Perception Protocol • Each panelist tasted salt 5 reference (0.35% salt solution)—to ground themselves on salt intensity of 5.0. • Each panelist tasted the test sample (0.1 ppb, 0.5 ppb, 1.0 ppb, 10.0 ppb or 40.0/50.0 ppb all in 0.2% NaCl solution: only one per session) • Each panelist then re-tasted the salt 5 reference and rated it for salt intensity as well as any other basic taste, chemical feeling factor, or aromatic perceived. This captured any increased salt perception indicated by the test sample as well as any other perceptions present. • Return to Baseline Protocol • After evaluating the sample for salt & other perceptions, panelists re-tasted the salt 5 reference at 1 minute intervals until their perception of the salt 5 saltiness intensity had returned to 5.0. Each panelist recorded their salt intensity at each interval and took qualitative notes on other perceptions seen in aftertaste. Sample Preparation
The 0.1, 0.5, 1.0 10, 40, and 50 ppb test samples of the flavor composition peptides were prepared in water as described in table 4.
The panelists evaluated each sample for the attributes described in table 5.

panelists [2] = assay: Return to baseline protocol: salt reference re-tasted at 1 minute intervals
Method: as §1, with “After evaluating the sample for salt and other perceptions (step 3 above), each panelist re-tasted the salt reference (5.0 intensity) at 1 minute intervals until their perception of the saltiness intensity of the reference returned to 5.0. Each panelist recorded salt intensity at each interval and took qualitative notes on other perceptions seen in aftertaste. Attribute” for “Attribute”

## [pGlu]-Val-Cys [UE-30]
Panel of trained tasters
  Off-taste: had a metallic taste

## [pGlu]-Val [SE-14]
Panelists [1]; 0.1 ppb in 0.2% NaCl
  Astringent, in-mouth perception: 0.0
  Bitter, in-mouth perception: 0.0
  Flinty/Mineral, in-mouth perception: 0.8
  Metallic, in-mouth perception: 0.3
  Numbing, in-mouth perception: 0.0
  Salt, in-mouth perception (mean salt perception in-mouth): 1.8
  Sour, in-mouth perception: 0.0
  Sweet, in-mouth perception: 0.0
Panelists [1]; 0.1 to 40.0/50.0 ppb
  Level of the aromatics, basic tastes and chemical feeling factors in-mouth with increasing concentration: does not increase
Panelists [1]; 0.1 to 40.0/50.0 ppb in 0.2% NaCl
  Salt perception in-mouth as the concentration increases: increases slightly; also recorded: slight increase
Panelists [1]; 0.5 ppb in 0.2% NaCl
  Astringent, in-mouth perception: 0.1
  Bitter, in-mouth perception: 0.0
  Flinty/Mineral, in-mouth perception: 0.6
  Metallic, in-mouth perception: 0.1
  Numbing, in-mouth perception: 0.0
  Salt, in-mouth perception (mean salt perception in-mouth): 2.5
  Sour, in-mouth perception: 0.0
  Sweet, in-mouth perception: 0.0
Panelists [1]; 1.0 ppb in 0.2% NaCl
  Astringent, in-mouth perception: 0.1
  Bitter, in-mouth perception: 0.0
  Flinty/Mineral, in-mouth perception: 0.9
  Metallic, in-mouth perception: 0.1
  Numbing, in-mouth perception: 0.0
  Salt, in-mouth perception (mean salt perception in-mouth): 2.9
  Sour, in-mouth perception: 0.0
  Sweet, in-mouth perception: 0.0
Panelists [1]; 10.0 ppb in 0.2% NaCl
  Astringent, in-mouth perception: 0.0
  Bitter, in-mouth perception: 0.0
  Flinty/Mineral, in-mouth perception: 0.9
  Metallic, in-mouth perception: 0.3
  Numbing, in-mouth perception: 0.0
  Salt, in-mouth perception (mean salt perception in-mouth): 3.3
  Sour, in-mouth perception: 0.0
  Sweet, in-mouth perception: 0.0
Panelists [1]; 50.0 ppb in 0.2% NaCl
  Astringent, in-mouth perception: 0.0
  Bitter, in-mouth perception: 0.0
  Flinty/Mineral, in-mouth perception: 0.7
  Metallic, in-mouth perception: 0.2
  Numbing, in-mouth perception: 0.0
  Salt, in-mouth perception (mean salt perception in-mouth): 3.2
  Sour, in-mouth perception: 0.0
  Sweet, in-mouth perception: 0.0
Panelists [1]; all levels
  Umami like swelling of lips and tongue, in-mouth: Some panelists also experience Umami like swelling of lips and tongue
Panelists [1]; both in-mouth and after expectoration
  Umami like feeling factor of lip and tongue swelling: Shows umami like feeling factor of lip and tongue swelling
Panelists [2]; 0.1 ppb in 0.2% NaCl
  Mean time needed to return to baseline: 4.6 min
  Mean time needed to return to baseline (min.): 4.6 min
Panelists [2]; 0.1 to 40.0/50.0 ppb
  Time needed to return to baseline as the concentration increases: increases slightly overall; also recorded: slight increase overall
Panelists [2]; 0.5 ppb in 0.2% NaCl
  Mean time needed to return to baseline: 4.6 min
  Mean time needed to return to baseline (min.): 4.6 min
Panelists [2]; 1.0 ppb in 0.2% NaCl
  Mean time needed to return to baseline: 3.9 min
  Mean time needed to return to baseline (min.): 3.9 min
Panelists [2]; 10.0 ppb in 0.2% NaCl
  Mean time needed to return to baseline: 5.8 min
  Mean time needed to return to baseline (min.): 5.8 min
Panelists [2]; 50.0 ppb in 0.2% NaCl
  Mean time needed to return to baseline: 6.6 min
  Mean time needed to return to baseline (min.): 6.6 min
